The values that follow are results of earlier work, collected in patent US6576223B2, “Insect repellent” (Karl Engelhard Fabrik Pharm Praparate GmbH & Co. KG., priority 1997, dated 2003).

In data set [1] the test system is insects.
The conditions of data set [2]: concentrations of DEET exceeding 30%; monograph Diethyltoluamid, Bundesanzeiger No. 137.

As for polyethylene glycol 400 [PEG-400], the “repellent effect of the adjuvant itself” value in data set [1] (adjuvant alone, EP 0 090 288) is “no repellent effect”. For `CCN(CC)C(=O)c1cccc(C)c1` [DEET, N,N-diethyl-m-toluamide], in data set [1] (DEET as alcohol solution applied to the skin, known agents), the period of effectiveness result is given as “about 5 hours”. Further, in data set [2], the side effects entry was “blistering, ulceration, and necroses can occur”.
